Data set [1] is described as follows: human liver microsome (HLM) metabolic stability assay. Type of data set: in vitro ADME. Conditions: human liver microsomes; % hepatic blood flow calculated from t1/2. In outline:
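Compounds at 1 uM incubated with human liver microsomes plus NADPH at 37° C., sampled at 0, 5, 15, 30 and 60 min into cold acetonitrile and quantified by LC/MS/MS. t½ from the slope of ln % remaining vs time; CLint, CLh and % Qh derived from it (n=1).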

The target of data set [2] is T1, human soluble guanylate cyclase alpha 1 and beta 1 subunits (sGC) (Homo sapiens, UniProt Q02108+Q02153).
T1 construct: expressed in transfected cells; host or cells: Chinese hamster ovary (CHO) cells, stably transfected
T1 sequence (Q02108 1-690): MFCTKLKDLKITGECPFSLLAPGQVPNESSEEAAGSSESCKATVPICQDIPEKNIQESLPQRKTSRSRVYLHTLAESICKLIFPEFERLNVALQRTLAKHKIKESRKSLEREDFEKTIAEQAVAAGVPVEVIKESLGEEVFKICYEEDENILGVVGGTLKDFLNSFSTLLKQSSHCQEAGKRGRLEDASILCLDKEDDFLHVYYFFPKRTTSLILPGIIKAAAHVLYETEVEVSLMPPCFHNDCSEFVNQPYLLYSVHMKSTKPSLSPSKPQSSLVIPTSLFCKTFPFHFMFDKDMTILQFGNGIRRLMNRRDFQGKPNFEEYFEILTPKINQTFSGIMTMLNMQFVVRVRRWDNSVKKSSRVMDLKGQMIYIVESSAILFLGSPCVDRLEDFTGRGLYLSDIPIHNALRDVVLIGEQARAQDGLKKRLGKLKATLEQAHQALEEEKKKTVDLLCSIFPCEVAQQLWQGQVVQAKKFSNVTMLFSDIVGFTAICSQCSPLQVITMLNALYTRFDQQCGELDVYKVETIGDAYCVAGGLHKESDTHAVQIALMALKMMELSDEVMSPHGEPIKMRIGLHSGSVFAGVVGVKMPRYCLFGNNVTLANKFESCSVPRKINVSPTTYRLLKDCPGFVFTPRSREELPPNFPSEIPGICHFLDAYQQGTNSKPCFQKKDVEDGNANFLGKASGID
T1 sequence (Q02153 1-619): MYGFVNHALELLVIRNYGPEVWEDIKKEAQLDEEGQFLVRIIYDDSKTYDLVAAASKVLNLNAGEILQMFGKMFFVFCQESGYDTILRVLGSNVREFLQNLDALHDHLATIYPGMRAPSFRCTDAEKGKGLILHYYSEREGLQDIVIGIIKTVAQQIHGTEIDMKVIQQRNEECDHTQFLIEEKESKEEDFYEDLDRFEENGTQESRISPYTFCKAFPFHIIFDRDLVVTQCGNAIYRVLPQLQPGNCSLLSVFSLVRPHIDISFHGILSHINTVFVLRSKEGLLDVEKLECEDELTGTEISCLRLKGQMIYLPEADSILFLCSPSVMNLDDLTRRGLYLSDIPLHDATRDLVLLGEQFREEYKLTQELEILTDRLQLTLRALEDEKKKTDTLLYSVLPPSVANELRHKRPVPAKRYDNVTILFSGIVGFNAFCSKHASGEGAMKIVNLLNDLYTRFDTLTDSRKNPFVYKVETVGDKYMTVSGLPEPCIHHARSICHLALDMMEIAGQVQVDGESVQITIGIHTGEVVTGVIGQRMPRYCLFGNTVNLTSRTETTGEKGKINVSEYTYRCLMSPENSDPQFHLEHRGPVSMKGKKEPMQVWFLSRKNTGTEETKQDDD
Kind of data set: sGC cellular activator assay (cGMP, HTRF). Format: cell-based. The note with it: CHO cells stably expressing human sGC alpha 1/beta 1, preincubated with 40 microM ODQ; cGMP readout; assay run with and without 50% human serum, Table 2 does not say which. In short, it runs like this:
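Heme-oxidized conditions: ODQ (40 microM, 1 h) pretreatment of CHO cells stably expressing human α1/β1 sGC, in buffer containing 0.1% BSA and IBMX.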

Take `Cc1cccc(-c2cccc(-n3ncc(C(=O)O)c3OC(C)C)n2)c1OCc1ccc2c(c1)CCN(C1CCOCC1)C2` [Compound 1, 5-isopropoxy-1-(6-{3-methyl-2-[2-(tetrahydro-pyran-4-yl)-1,2,3,4-tetrahydro-isoquinolin-6-ylmethoxy]-phenyl}-pyridin-2-yl)-1H-pyrazole-4-carboxylic acid]: in data set [1], the “HLM (% Qh)” value is given as <24 % Qh. Moreover, the concentration giving a half-maximal response (EC50) in data set [2] stood at 39 nM.

On to `Cc1cccc(-c2cccc(-n3ncc(C(=O)O)c3OC(C)C)n2)c1OCc1ccc2c(c1)CCN(C1CCC(F)(F)CC1)C2` [Compound 2], for which the “HLM (% Qh)” value in data set [1] is given as <24 % Qh. The molecule further displayed an EC50 in data set [2] of 11 nM.

For the molecule `COc1c(C(=O)O)cnn1-c1cccc(-c2cccc(C)c2OCc2ccc3c(c2)CCN(C2CCOCC2)C3)n1` [Compound 3], the “HLM (% Qh)” value in data set [1] was <24 % Qh. This molecule displayed an EC50 in data set [2] of 29 nM.

As for `Cc1cccc(-c2cccc(-n3ncc(C(=O)O)c3OC(C)C)n2)c1OCc1ccc2c(c1)CCN(CC1CC(F)(F)C1)C2` [Compound 4, 1-(6-{2-[2-(3,3-difluoro-cyclobutylmethyl)-1,2,3,4-tetrahydro-isoquinolin-6-ylmethoxy]-3-methyl-phenyl}-pyridin-2-yl)-5-isopropoxy-1H-pyrazole-4-carboxylic acid], the “HLM (% Qh)” value in data set [1] is given as <24 % Qh. In data set [2], this molecule came in with an EC50 of 11 nM.

Turning to `COc1c(C(=O)O)cnn1-c1cccc(-c2cccc(C)c2OCc2ccc3c(c2)CCN(C2CCC(F)(F)CC2)C3)n1` [Compound 5], the “HLM (% Qh)” value in data set [1] is on record as <24 % Qh. For the same molecule, in data set [2], a half-maximal response (EC50) required 9 nM.

As for `CCOc1c(C(=O)O)cnn1-c1cccc(-c2cccc(C)c2OCc2ccc3c(c2)CCN(C2COC2)C3)n1` [Compound 6], the “HLM (% Qh)” value in data set [1] is given as <24 % Qh. In data set [2], this molecule showed an EC50 of 87 nM.

Regarding `COc1c(C(=O)O)cnn1-c1cccc(-c2cccc(C)c2OCc2ccc3c(c2C)CCN(CC(C)(C)C)C3)n1` [Compound 30], the “HLM (% Qh)” value in data set [1] is given as <24 % Qh. The same molecule showed an EC50 in data set [2] of 10 nM.

As for `COc1c(C(=O)O)cnn1-c1cccc(-c2cccc(C)c2OCc2ccc3c(c2C)CCN(C2CCOC2)C3)n1` (stereo not shown) [Compound 31], in data set [1], the “HLM (% Qh)” value was <24 % Qh. In data set [2], this molecule registered an EC50 of 19 nM.

For `CCOc1c(C(=O)O)cnn1-c1cccc(-c2cccc(C)c2OCc2ccc3c(c2)CCN(C(C)C)C3)n1` [Compound 32], the “HLM (% Qh)” value in data set [1] was <24 % Qh. This molecule showed an EC50 in data set [2] of 170 nM.

As to `COc1c(C(=O)O)cnn1-c1cccc(-c2cccc(C)c2OCc2ccc3c(c2)CCN(CC(C)(C)O)C3)n1` [Compound 33, 1-(6-{2-[2-(2-hydroxy-2-methyl-propyl)-1,2,3,4-tetrahydro-isoquinolin-6-ylmethoxy]-3-methyl-phenyl}-pyridin-2-yl)-5-methoxy-1H-pyrazole-4-carboxylic acid], the “HLM (% Qh)” value in data set [1] is listed as <24 % Qh. Also, the EC50 in data set [2] turned out to be 97 nM.

As for `CCOc1c(C(=O)O)cnn1-c1cccc(-c2cccc(C)c2OCc2ccc3c(c2)CCN(CC2(C)COC2)C3)n1` [Compound 34], the “HLM (% Qh)” value in data set [1] is <24 % Qh. The molecule further gave an EC50 in data set [2] of 65 nM.

Take `CCOc1c(C(=O)O)cnn1-c1cccc(-c2cccc(C)c2OCc2ccc3c(c2)CCN(C2CCOC2)C3)n1` (stereo not shown) [Compound 35]: the “HLM (% Qh)” value in data set [1] was <24 % Qh. Besides, the EC50 in data set [2] came out at 29 nM.

Turning to `CCOc1c(C(=O)O)cnn1-c1cccc(-c2cccc(C)c2OCc2ccc3c(c2)CCN(C2CCCOC2)C3)n1` (stereo not shown) [Compound 36], in data set [1], the “HLM (% Qh)” value is given as <24 % Qh. This molecule returned an EC50 in data set [2] of 27 nM.

As for `Cc1cccc(-c2cccc(-n3ncc(C(=O)O)c3OC(C)C)n2)c1OCc1ccc2c(c1)CCN(C(C)C)C2` [Compound 37], the “HLM (% Qh)” value in data set [1] is on record as <24 % Qh. In data set [2], this molecule had a half-maximal effective concentration (EC50) of 120 nM.

For `COCC(C)N1CCc2cc(COc3c(C)cccc3-c3cccc(-n4ncc(C(=O)O)c4OC(C)C)n3)ccc2C1` (stereo not shown) [Compound 38], in data set [1], the “HLM (% Qh)” value is on record as <24 % Qh. In data set [2], this molecule displayed an EC50 of 66 nM.

As to `Cc1cccc(-c2cccc(-n3ncc(C(=O)O)c3OC(C)C)n2)c1OCc1ccc2c(c1)CCN(C1COC1)C2` [Compound 39], the “HLM (% Qh)” value in data set [1] is reported as <24 % Qh. The EC50 in data set [2] came out at 17 nM.

As to `Cc1cccc(-c2cccc(-n3ncc(C(=O)O)c3OC(C)C)n2)c1OCc1ccc2c(c1)CCN(CC1(C)COC1)C2` [Compound 40], the “HLM (% Qh)” value in data set [1] is recorded as <24 % Qh. This molecule displayed an EC50 in data set [2] of 62 nM.

For the molecule `Cc1cccc(-c2cccc(-n3ncc(C(=O)O)c3OC(C)C)n2)c1OCc1ccc2c(c1)CCN(C1CCOC1)C2` (stereo not shown) [Compound 41], the “HLM (% Qh)” value in data set [1] is <24 % Qh. The molecule further yielded an EC50 in data set [2] of 27 nM.

In the case of `Cc1cccc(-c2cccc(-n3ncc(C(=O)O)c3OC(C)C)n2)c1OCc1ccc2c(c1)CCN(C1CCCOC1)C2` (stereo not shown) [Compound 42], the “HLM (% Qh)” value in data set [1] was <24 % Qh. The molecule further gave an EC50 in data set [2] of 24 nM.

With `Cc1cccc(-c2cccc(-n3ncc(C(=O)O)c3OC(C)C)n2)c1OCc1ccc2c(c1C)CCN(C(C)C)C2` [Compound 43], the “HLM (% Qh)” value in data set [1] is listed as 26 % Qh. In data set [2], this molecule gave an EC50 of 130 nM.

Consider `COCC(C)N1CCc2c(ccc(COc3c(C)cccc3-c3cccc(-n4ncc(C(=O)O)c4OC(C)C)n3)c2C)C1` (stereo not shown) [Compound 44], for which the “HLM (% Qh)” value in data set [1] is given as <24 % Qh. Further, it took 44 nM to reach a half-maximal effect in data set [2] (EC50).

For `Cc1cccc(-c2cccc(-n3ncc(C(=O)O)c3OC(C)C)n2)c1OCc1ccc2c(c1C)CCN(C1COC1)C2` [Compound 45], the “HLM (% Qh)” value in data set [1] is reported as <24 % Qh. The molecule further gave an EC50 in data set [2] of 26 nM.

As to `Cc1cccc(-c2cccc(-n3ncc(C(=O)O)c3OC(C)C)n2)c1OCc1ccc2c(c1C)CCN(CC1(C)COC1)C2` [Compound 46], in data set [1], the “HLM (% Qh)” value was <24 % Qh. In data set [2], this molecule displayed an EC50 of 38 nM.

On to `CCOc1c(C(=O)O)cnn1-c1cccc(-c2cccc(C)c2OCc2ccc3c(c2)CCN(C(C)CF)C3)n1` (stereo not shown) [Compound 49, 5-ethoxy-1-(6-{2-[2-(2-fluoro-1-methyl-ethyl)-1,2,3,4-tetrahydro-isoquinolin-6-ylmethoxy]-3-methyl-phenyl}-pyridin-2-yl)-1H-pyrazole-4-carboxylic acid], for which, in data set [1], the “HLM (% Qh)” value is 48 % Qh. The EC50 in data set [2] is 54 nM.

Consider `CCOc1c(C(=O)O)cnn1-c1cccc(-c2cccc(Cl)c2OCc2ccc3c(c2)CCNC3)n1` [Compound 50], for which, in data set [1], the “HLM (% Qh)” value is on record as 40 % Qh. This molecule also showed an EC50 in data set [2] of 990 nM.

As for `CCOc1c(C(=O)O)cnn1-c1cccc(-c2cccc(Cl)c2OCc2ccc3c(c2)CCN(C2COC2)C3)n1` [Compound 51], the “HLM (% Qh)” value in data set [1] was <24 % Qh. Besides, in data set [2], the EC50 amounted to 72 nM.

In the case of `COc1c(C(=O)O)cnn1-c1cccc(-c2cc(F)cc(F)c2OCc2ccc3c(c2)CCN(C2COC2)C3)n1` [Compound 52], the “HLM (% Qh)” value in data set [1] is recorded as <24 % Qh. This molecule also registered an EC50 in data set [2] of 170 nM.

With `COc1c(C(=O)O)cnn1-c1cccc(-c2cc(F)cc(F)c2OCc2ccc3c(c2)CCN(C2CCOCC2)C3)n1` [Compound 53], the “HLM (% Qh)” value in data set [1] is on record as <24 % Qh. In data set [2], this molecule yielded an EC50 of 110 nM.

Regarding `CCOc1c(C(=O)O)cnn1-c1cccc(-c2cccc(Cl)c2OCc2ccc3c(c2)CCN(C2CCOCC2)C3)n1` [Compound 54], in data set [1], the “HLM (% Qh)” value is <24 % Qh. The same molecule showed an EC50 in data set [2] of 110 nM.

Take `CCOc1c(C(=O)O)cnn1-c1cccc(-c2cccc(Cl)c2OCc2ccc3c(c2)CCN(C2CCOC2)C3)n1` (stereo not shown) [Compound 55]: the “HLM (% Qh)” value in data set [1] was <24 % Qh. The molecule also returned an EC50 in data set [2] of 110 nM.

Take `CCOc1c(C(=O)O)cnn1-c1cccc(-c2cccc(Cl)c2OCc2ccc3c(c2)CCN(C(C)CO)C3)n1` (stereo not shown) [Compound 56]: the “HLM (% Qh)” value in data set [1] was <24 % Qh. Further, in data set [2], the EC50 was found to be 820 nM.

For `CCOc1c(C(=O)O)cnn1-c1cccc(-c2cccc(Cl)c2OCc2ccc3c(c2)CCN(C2CCC(F)(F)CC2)C3)n1` [Compound 57], the “HLM (% Qh)” value in data set [1] is on record as <24 % Qh. Further, the concentration for a half-maximal effect (EC50) in data set [2] is 24 nM.
